Laboratory results from patent US8410144B2, “Substituted indolo-pyridinone compounds” (ArQule, Inc., priority 2009, dated 2013).

Tests used:
DLD-1 = assay: MTS assay, DLD-1 cells; type: cell-based; settings: Homo sapiens, 72 hours, read-out: DLD-1, MTS cell kill % inhibition
Summary of the method: (§1)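 First, seed 3000 cells per well in low-serum (1% FBS) DMEM and culture 18 h. Next, add compounds prepared at 300× in DMSO and diluted 1:40 in DMEM; incubate 72 h. Finally, add MTS/PMS for 4 h and measure absorbance at 492 nm.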

KATO III = assay: MTS assay, KATO III cells; type: cell-based; settings: Homo sapiens, 72 hours, read-out: KATO III, MTS cell kill % inhibition
Summary of the method: as §1

MDA-MB-231 = assay: MTS assay, MDA-MB-231 cells; type: cell-based; settings: Homo sapiens, 72 hours, read-out: MDA-MB-231, MTS cell kill % inhibition
Summary of the method: as §1

NCI-H1299 = assay: MTS assay, NCI-H1299 cells; type: cell-based; settings: Homo sapiens, 72 hours, read-out: NCI-H1299, MTS cell kill % inhibition
Summary of the method: as §1

IGF-1R = IGF-1R (Homo sapiens, UniProt P08069); assay: IGFR1 activity assay (ELISA); type: biochemical; settings: read-out: IGF-1R, PCT INH (30 μM), ELISA
Summary of the method: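 IGF1R (0.33 ng/μL final) phosphorylating Pyk-2 (0.05 ng/μL final) in buffer with 12.5 μM ATP, 10 mM MgCl2, 1 h room temperature. Product captured on streptavidin plates, detected with anti-phosphotyrosine and alkaline phosphatase secondary antibody, Attophos fluorescent readout.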

IGF-1R, sequence (P08069 31-1367): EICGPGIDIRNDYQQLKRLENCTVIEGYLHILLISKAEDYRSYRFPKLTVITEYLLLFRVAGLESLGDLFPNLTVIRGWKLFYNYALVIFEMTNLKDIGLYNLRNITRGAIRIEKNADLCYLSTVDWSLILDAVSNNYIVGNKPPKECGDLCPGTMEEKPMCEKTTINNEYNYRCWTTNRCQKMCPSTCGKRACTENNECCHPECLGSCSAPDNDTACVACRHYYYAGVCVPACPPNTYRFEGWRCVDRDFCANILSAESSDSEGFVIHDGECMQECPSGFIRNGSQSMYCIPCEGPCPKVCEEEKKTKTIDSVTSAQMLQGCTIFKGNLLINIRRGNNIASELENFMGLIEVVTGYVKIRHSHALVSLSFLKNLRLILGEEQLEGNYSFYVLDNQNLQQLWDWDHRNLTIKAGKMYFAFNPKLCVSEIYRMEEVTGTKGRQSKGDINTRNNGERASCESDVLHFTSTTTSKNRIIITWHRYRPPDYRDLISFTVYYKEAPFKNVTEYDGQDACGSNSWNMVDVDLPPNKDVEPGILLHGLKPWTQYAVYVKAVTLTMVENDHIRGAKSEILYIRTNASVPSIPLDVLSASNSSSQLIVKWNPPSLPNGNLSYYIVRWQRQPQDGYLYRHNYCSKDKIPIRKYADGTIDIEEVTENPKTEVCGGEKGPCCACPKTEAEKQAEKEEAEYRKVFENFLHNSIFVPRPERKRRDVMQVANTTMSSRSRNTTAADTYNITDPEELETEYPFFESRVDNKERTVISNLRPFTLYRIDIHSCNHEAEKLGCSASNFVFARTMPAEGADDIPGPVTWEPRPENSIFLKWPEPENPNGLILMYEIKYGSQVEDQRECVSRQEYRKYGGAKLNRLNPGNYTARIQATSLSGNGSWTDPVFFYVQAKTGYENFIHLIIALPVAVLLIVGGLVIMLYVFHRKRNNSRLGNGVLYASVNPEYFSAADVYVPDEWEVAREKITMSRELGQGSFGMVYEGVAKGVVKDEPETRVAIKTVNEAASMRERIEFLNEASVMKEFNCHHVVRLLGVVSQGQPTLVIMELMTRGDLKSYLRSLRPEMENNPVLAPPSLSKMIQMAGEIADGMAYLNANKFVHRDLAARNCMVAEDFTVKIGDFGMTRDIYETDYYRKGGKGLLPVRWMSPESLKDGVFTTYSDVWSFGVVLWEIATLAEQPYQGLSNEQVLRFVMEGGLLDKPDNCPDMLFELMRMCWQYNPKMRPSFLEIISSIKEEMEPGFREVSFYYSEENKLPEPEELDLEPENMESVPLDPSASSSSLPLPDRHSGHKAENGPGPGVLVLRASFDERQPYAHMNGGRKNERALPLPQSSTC

Row | melting point | inhibition at 30 µM (IGF-1R) | SMILES | inhibition at 10 µM (DLD-1) | inhibition at 10 µM (KATO III) | inhibition at 10 µM (MDA-MB-231) | inhibition at 10 µM (NCI-H1299)
1 | 147 to 153 °C | < 50% | O=C(NCCOc1ccccc1)c1ccc2[nH]c(-c3ccc[nH]c3=O)c(-c3ccc(-c4ccccc4)cc3)c2c1 [Compound 51, 3-biphenyl-4-yl-2-(2-oxo-1,2-dihydropyridin-3-yl)-N-(2-phenoxyethyl)-1H-indole-5-carboxamide] | < 50% | < 50% | 50 to 79% | < 50%
2 | 140 to 143 °C | 80 to 100% | CC(C)Oc1ccc(-c2c(-c3ccc[nH]c3=O)[nH]c3ccc(C(=O)NCCCN4CCOCC4)cc23)cc1 [Compound 66, 3-(4-isopropoxyphenyl)-N-(3-morpholin-4-ylpropyl)-2-(2-oxo-1,2-dihydropyridin-3-yl)-1H-indole-5-carboxamide] | 50 to 79% | 80 to 100% | 80 to 100% | 80 to 100%
3 | 170 to 182 °C | < 50% | O=C(c1ccc2[nH]c(-c3ccc[nH]c3=O)c(-c3ccc(-c4ccccc4)cc3)c2c1)N1CCCCC1 [Compound 38, 3-[3-biphenyl-4-yl-5-(piperidin-1-ylcarbonyl)-1H-indol-2-yl]pyridin-2(1H)-one] | 80 to 100% | 80 to 100% | 80 to 100% | 80 to 100%
4 | > 300 °C | < 50% | O=C(Nc1ccccc1Cl)c1ccc2[nH]c(-c3ccc[nH]c3=O)c(-c3ccccc3)c2c1 [Compound 12, N-(2-chlorophenyl)-2-(2-oxo-1,2-dihydropyridin-3-yl)-3-phenyl-1H-indole-5-carboxamide] | 80 to 100% | 80 to 100% | 50 to 79% | 80 to 100%
5 | 182 to 186 °C | 80 to 100% | O=C(c1ccc2[nH]c(-c3ccc[nH]c3=O)c(-c3ccccc3)c2c1)N1CCCCC1 [Compound 17, 3-[3-phenyl-5-(piperidin-1-ylcarbonyl)-1H-indol-2-yl]pyridin-2(1H)-one] | 50 to 79% | 80 to 100% | < 50% | 80 to 100%
6 | 216 to 220 °C | 80 to 100% | Cc1ccccc1N(C)C(=O)c1ccc2[nH]c(-c3ccc[nH]c3=O)c(-c3ccccc3)c2c1 [Compound 16, N-methyl-N-(2-methylphenyl)-2-(2-oxo-1,2-dihydropyridin-3-yl)-3-phenyl-1H-indole-5-carboxamide] | 50 to 79% | 80 to 100% | < 50% | 50 to 79%
7 | 244 to 250 °C | 50 to 79% | O=C(Nc1cccc(Cl)c1)c1ccc2[nH]c(-c3ccc[nH]c3=O)c(-c3ccccc3)c2c1 [Compound 22, N-(3-chlorophenyl)-2-(2-oxo-1,2-dihydropyridin-3-yl)-3-phenyl-1H-indole-5-carboxamide] | 80 to 100% | 80 to 100% | 50 to 79% | 50 to 79%
8 | 185 to 188 °C | < 50% | CN1CCCC1CCNC(=O)c1ccc2[nH]c(-c3ccc[nH]c3=O)c(-c3ccccc3)c2c1 (stereo not drawn) [Compound 5, N-[2-(1-methylpyrrolidin-2-yl)ethyl]-2-(2-oxo-1,2-dihydropyridin-3-yl)-3-phenyl-1H-indole-5-carboxamide] | 50 to 79% | 80 to 100% | 50 to 79% | 80 to 100%
9 | 181 to 189 °C | 50 to 79% | O=C(NCCCN1CCOCC1)c1ccc2[nH]c(-c3ccc[nH]c3=O)c(-c3cc4cccc5c4n3CCC5)c2c1 [Compound 8, 3-(5,6-dihydro-4H-pyrrolo[3,2,1-ij]quinolin-2-yl)-N-(3-morpholin-4-ylpropyl)-2-(2-oxo-1,2-dihydropyridin-3-yl)-1H-indole-5-carboxamide] | 80 to 100% | 80 to 100% | 80 to 100% | 80 to 100%
10 | 115 to 120 °C | 80 to 100% | Cc1cc(C)cc(-c2c(-c3ccc[nH]c3=O)[nH]c3ccc(C(=O)NCCCN4CCOCC4)cc23)c1 [Compound 70, 3-(3,5-dimethylphenyl)-N-(3-morpholin-4-ylpropyl)-2-(2-oxo-1,2-dihydropyridin-3-yl)-1H-indole-5-carboxamide] | 80 to 100% | 80 to 100% | 80 to 100% | 80 to 100%
11 | 238 to 244 °C | 80 to 100% | O=C(NCCCN1CCOCC1)c1ccc2[nH]c(-c3ccc[nH]c3=O)c(-c3ccccc3)c2c1 [Compound 1, N-(3-morpholin-4-ylpropyl)-2-(2-oxo-1,2-dihydropyridin-3-yl)-3-phenyl-1H-indole-5-carboxamide] | 80 to 100% | 80 to 100% | 80 to 100% | 80 to 100%
12 | 136 to 141 °C | < 50% | CN(CCc1ccccc1)C(=O)c1ccc2[nH]c(-c3ccc[nH]c3=O)c(-c3ccc(-c4ccccc4)cc3)c2c1 [Compound 43, 3-biphenyl-4-yl-N-methyl-2-(2-oxo-1,2-dihydropyridin-3-yl)-N-(2-phenylethyl)-1H-indole-5-carboxamide] | 50 to 79% | 50 to 79% | < 50% | 50 to 79%
13 | 152 to 154 °C | 80 to 100% | Cc1ccc(-c2c(-c3ccc[nH]c3=O)[nH]c3ccc(C(=O)NCCCN4CCOCC4)cc23)cc1 [Compound 72, 3-(4-methylphenyl)-N-(3-morpholin-4-ylpropyl)-2-(2-oxo-1,2-dihydropyridin-3-yl)-1H-indole-5-carboxamide] | 50 to 79% | 80 to 100% | < 50% | 80 to 100%
14 | > 300 °C | 80 to 100% | O=C(Nc1ccccc1F)c1ccc2[nH]c(-c3ccc[nH]c3=O)c(-c3ccccc3)c2c1 [Compound 15, N-(2-fluorophenyl)-2-(2-oxo-1,2-dihydropyridin-3-yl)-3-phenyl-1H-indole-5-carboxamide] | 80 to 100% | 80 to 100% | 50 to 79% | 50 to 79%
15 | 143 to 145 °C | 80 to 100% | CCc1ccc(-c2c(-c3ccc[nH]c3=O)[nH]c3ccc(C(=O)NCCCN4CCOCC4)cc23)cc1 [Compound 65, 3-(4-ethylphenyl)-N-(3-morpholin-4-ylpropyl)-2-(2-oxo-1,2-dihydropyridin-3-yl)-1H-indole-5-carboxamide] | 80 to 100% | 80 to 100% | 50 to 79% | 80 to 100%

Row | SMILES | melting point | inhibition at 30 µM (IGF-1R) | inhibition at 10 µM (DLD-1) | inhibition at 10 µM (KATO III) | inhibition at 10 µM (MDA-MB-231) | inhibition at 10 µM (NCI-H1299)
16 | O=c1[nH]cccc1-c1[nH]c2ccccc2c1C1CCN(Cc2cccc3ccccc23)CC1 [Compound 88, 3-{3-[1-(1-naphthylmethyl)piperidin-4-yl]-1H-indol-2-yl}pyridin-2(1H)-one] | 205 to 206 °C | < 50% | 80 to 100% | < 50% | 80 to 100% | < 50%
